Measurements taken from patent US4003891A, “Preparation of metal complexes of 6-methoxy-1-phenazinol 5,10 dioxide” (Hoffmann-La Roche Inc., priority 1975, dated 1977).

Experiments:
[1] = test system: S. aureus; assay: In vivo anti-microbial efficacy against bacteria (ED50')
Procedure: (§1) For example, the anti-microbial activity of calcium myxin dihydrate, prepared by the method of this invention, is evaluated and compared to that of myxin itself both in vivo against 4 strains of bacteria and in vitro against yeast and fungus infections.

[2] = test system: E. coli; assay: as above
Procedure: as §1

[3] = test system: S. agalactiae; assay: as above
Procedure: as §1

[4] = test system: P. aeruginosa; assay: as above
Procedure: as §1

[5] = Solubility in water; type: physicochemical

Row | Molecule | ED50' [1] [µg/mL] | ED50' [2] [µg/mL] | ED50' [3] [µg/mL] | ED50' [4] [µg/mL] | solubility in water [5]
1 | 6-methoxy-1-phenazinol 5,10-dioxide, calcium dihydrate complex [Calcium Myxin Dihydrate] | < 20 | 60 | < 4 | 20 | 
2 | COc1cccc2c1[n+]([O-])c1cccc(O)c1[n+]2[O-] [Myxin, 6-methoxy-1-phenazinol 5,10-dioxide] |  |  |  |  | very slightly soluble
